In patent publication US10323038B2, “Pyrazole compounds and methods of making and using same” (ABIDE THERAPEUTICS, INC., priority 2015, dated 2019):

Legend:
[1] = target: MAGL (Mus musculus (Mouse), UniProt O35678); experiment: In vitro competitive activity-based protein profiling, MAGL (mouse); format: biochemical; details: for inhibition at 1 µM: read-out: MAGL % inh. 1 μM (mouse)
Experimental: (§1) In Vitro Competitive Activity-Based Protein Profiling.
(§2) Proteomes (mouse brain membrane fraction or cell lysates for mouse assays; human prefrontal cortex or cell membrane fractions for human assays) (50 μL, 1.0 mg/mL total protein concentration) were preincubated with varying concentrations of inhibitors at 37° C. After 30 min, FP—Rh or HT-01 (1.0 μL, 50 μM in DMSO) was added and the mixture was incubated for another 30 min at 37° C. Reactions were quenched with SDS loading buffer (15 μL-4×) and run on SDS-PAGE. Following gel imaging, serine hydrolase activity was determined by measuring fluorescent intensity of gel bands corresponding to MAGL and FAAH using ImageJ 1.43u software.

[2] = target: FAAH (Mus musculus (Mouse), UniProt O08914); experiment: In vitro competitive activity-based protein profiling, FAAH (mouse); format: biochemical; details: for inhibition at 1 µM: read-out: FAAH % inh. 1 μM (mouse)
Experimental: as §1, §2

Chain of MAGL (O35678 whole entry): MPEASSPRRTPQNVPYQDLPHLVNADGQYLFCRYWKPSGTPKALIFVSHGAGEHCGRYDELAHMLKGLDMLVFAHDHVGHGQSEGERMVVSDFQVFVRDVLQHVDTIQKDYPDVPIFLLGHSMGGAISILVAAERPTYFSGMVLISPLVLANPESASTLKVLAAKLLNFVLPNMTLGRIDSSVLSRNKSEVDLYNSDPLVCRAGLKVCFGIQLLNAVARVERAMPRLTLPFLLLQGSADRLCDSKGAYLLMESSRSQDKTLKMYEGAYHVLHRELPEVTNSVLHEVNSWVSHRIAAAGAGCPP
Chain of FAAH (O08914 whole entry): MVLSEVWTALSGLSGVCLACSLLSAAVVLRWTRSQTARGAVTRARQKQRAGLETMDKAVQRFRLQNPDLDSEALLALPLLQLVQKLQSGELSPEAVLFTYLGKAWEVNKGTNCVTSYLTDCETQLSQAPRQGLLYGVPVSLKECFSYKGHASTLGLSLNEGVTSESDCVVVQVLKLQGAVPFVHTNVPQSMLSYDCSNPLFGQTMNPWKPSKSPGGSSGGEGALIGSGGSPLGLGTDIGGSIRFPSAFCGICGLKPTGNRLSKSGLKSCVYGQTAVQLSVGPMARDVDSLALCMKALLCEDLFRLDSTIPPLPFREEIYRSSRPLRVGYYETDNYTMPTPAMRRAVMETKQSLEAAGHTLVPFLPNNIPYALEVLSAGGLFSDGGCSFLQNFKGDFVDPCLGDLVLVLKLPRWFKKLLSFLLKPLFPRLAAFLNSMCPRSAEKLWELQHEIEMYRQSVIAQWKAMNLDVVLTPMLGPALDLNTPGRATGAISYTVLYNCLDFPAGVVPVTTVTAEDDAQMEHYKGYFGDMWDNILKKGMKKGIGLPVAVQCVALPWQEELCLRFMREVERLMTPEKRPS

## CC(=O)N(C)c1cnn(C(=O)N2CCC3(CCN(Cc4cc(Cl)ccc4Cl)C3)C2)c1 (racemic) [Example 175, N-(1-(7-(2,5-dichlorobenzyl)-2,7-diazaspiro[4.4]nonane-2-carbonyl)-1H-pyrazol-4-yl)-N-methylacetamide]
[1]
  IC50: 100 to 1000 nM
  inhibition at 1 µM: ≥ 75%
[2]
  IC50: ≤ 100 nM
  inhibition at 1 µM: ≥ 75%

## CC(=O)N(C)c1cnn(C(=O)N2CCC3(CCN(Cc4cccc(C(F)(F)F)c4)C3)C2)c1 (single isomer, unassigned) [Example 65, N-methyl-N-(1-(7-(3-(trifluoromethyl)benzyl)-2,7-diazaspiro[4.4]nonane-2-carbonyl)-1H-pyrazol-4-yl)acetamide]
[1]
  IC50: 100 to 1000 nM
  inhibition at 1 µM: ≥ 75%
[2]
  IC50: ≤ 100 nM
  inhibition at 1 µM: ≥ 75%

## CC(=O)N(C)c1cnn(C(=O)N2CCC3(CCN(Cc4cccc(C(F)(F)F)c4)C3)C2)c1 (single isomer, unassigned) [Example 66, N-methyl-N-(1-(7-(3-(trifluoromethyl)benzyl)-2,7-diazaspiro[4.4]nonane-2-carbonyl)-1H-pyrazol-4-yl)acetamide]
[1]
  IC50: 100 to 1000 nM
[2]
  IC50: ≤ 100 nM

## CC(=O)N(C)c1cnn(C(=O)N2CCC3(CCN(Cc4cc(Cl)ccc4Cl)C3)C2)c1 (single isomer, unassigned) [Example 176, N-(1-(7-(2,5-dichlorobenzyl)-2,7-diazaspiro[4.4]nonane-2-carbonyl)-1H-pyrazol-4-yl)-N-methylacetamide]
[1]
  IC50: ≤ 100 nM
  inhibition at 1 µM: ≥ 75%
[2]
  IC50: ≤ 100 nM
  inhibition at 1 µM: ≥ 75%

## CC(=O)N(C)c1cnn(C(=O)N2CCC3(CCN(Cc4cc(Cl)ccc4Cl)C3)C2)c1 (single isomer, unassigned) [Example 177, N-(1-(7-(2,5-dichlorobenzyl)-2,7-diazaspiro[4.4]nonane-2-carbonyl)-1H-pyrazol-4-yl)-N-methylacetamide]
[1]
  IC50: ≤ 100 nM
[2]
  IC50: ≤ 100 nM

## CC(=O)N(C)c1cnn(C(=O)N2CCC3(CCN(Cc4ccc(Cl)c(Cl)c4)C3)C2)c1 (centres unmarked) [Example 1, N-(1-(7-(3,4-dichlorobenzyl)-2,7-diazaspiro[4.4]nonane-2-carbonyl)-1H-pyrazol-4-yl)-N-methylacetamide]
[1]
  IC50: 100 to 1000 nM
  inhibition at 1 µM: ≥ 75%
[2]
  IC50: ≤ 100 nM
  inhibition at 1 µM: ≥ 75%

## CC(=O)N(C)c1cnn(C(=O)N2CCC3(CCN(Cc4ccc(C(F)(F)F)cc4)C3)C2)c1 (centres unmarked) [Example 2, N-methyl-N-(1-(7-(4-(trifluoromethyl)benzyl)-2,7-diazaspiro[4.4]nonane-2-carbonyl)-1H-pyrazol-4-yl)acetamide]
[1]
  IC50: 100 to 1000 nM
  inhibition at 1 µM: ≥ 75%
[2]
  IC50: 100 to 1000 nM
  inhibition at 1 µM: ≥ 75%

## CC(=O)N(C)c1cnn(C(=O)N2CCC3(CCN(Cc4ccc(N5CCOCC5)cc4Cl)C3)C2)c1 (centres unmarked) [Example 4, N-(1-(7-(2-chloro-4-morpholinobenzyl)-2,7-diazaspiro[4.4]nonane-2-carbonyl)-1H-pyrazol-4-yl)-N-methylacetamide]
[1]
  IC50: 100 to 1000 nM
  inhibition at 1 µM: ≥ 75%
[2]
  IC50: ≤ 100 nM
  inhibition at 1 µM: ≥ 75%

## CS(=O)(=O)Nc1cnn(C(=O)N2CC3CN(Cc4ccccc4Cl)CC3C2)c1 (centres unmarked) [Example 6, N-(1-(5-(2-chlorobenzyl)octahydropyrrolo[3,4-c]pyrrole-2-carbonyl)-1H-pyrazol-4-yl)methanesulfonamide]
[1]
  IC50: 1000 to 10000 nM
  inhibition at 1 µM: 0 to 25%
[2]
  IC50: 100 to 1000 nM
  inhibition at 1 µM: ≥ 75%

## CS(=O)(=O)Nc1cnn(C(=O)N2CC3CN(Cc4cccc(Cl)c4)CC3C2)c1 (centres unmarked) [Example 7, N-(1-(5-(3-chlorobenzyl)octahydropyrrolo[3,4-c]pyrrole-2-carbonyl)-1H-pyrazol-4-yl)methanesulfonamide]
[1]
  IC50: 1000 to 10000 nM
  inhibition at 1 µM: 0 to 25%
[2]
  IC50: 100 to 1000 nM
  inhibition at 1 µM: ≥ 75%

## CS(=O)(=O)Nc1cnn(C(=O)N2CC3CN(Cc4ccc(Cl)cc4)CC3C2)c1 (centres unmarked) [Example 8, N-(1-(5-(4-chlorobenzyl)octahydropyrrolo[3,4-c]pyrrole-2-carbonyl)-1H-pyrazol-4-yl)methanesulfonamide]
[1]
  IC50: 1000 to 10000 nM
  inhibition at 1 µM: 0 to 25%
[2]
  IC50: 100 to 1000 nM
  inhibition at 1 µM: ≥ 75%

## CC(=O)N(C)c1cnn(C(=O)N2CC3CN(Cc4cccc(Cl)c4)CC3C2)c1 (centres unmarked) [Example 10, N-(1-(5-(3-chlorobenzyl)octahydropyrrolo[3,4-c]pyrrole-2-carbonyl)-1H-pyrazol-4-yl)-N-methylacetamide]
[1]
  IC50: 100 to 1000 nM
  inhibition at 1 µM: ≥ 75%
[2]
  IC50: 100 to 1000 nM
  inhibition at 1 µM: ≥ 75%

## CC(=O)N(C)c1cnn(C(=O)N2CC3CN(Cc4ccc(Cl)c(Cl)c4)CC3C2)c1 (centres unmarked) [Example 12, N-(1-(5-(3,4-dichlorobenzyl)octahydropyrrolo[3,4-c]pyrrole-2-carbonyl)-1H-pyrazol-4-yl)-N-methylacetamide]
[1]
  IC50: 100 to 1000 nM
  inhibition at 1 µM: ≥ 75%
[2]
  IC50: ≤ 100 nM
  inhibition at 1 µM: ≥ 75%

## CC(=O)N(C)c1cnn(C(=O)N2CC3CN(Cc4ccc(N5CCCC5)cc4)CC3C2)c1 (centres unmarked) [Example 13, N-methyl-N-(1-(5-(4-(pyrrolidin-1-yl)benzyl)octahydropyrrolo[3,4-c]pyrrole-2-carbonyl)-1H-pyrazol-4-yl)acetamide]
[1]
  IC50: 100 to 1000 nM
  inhibition at 1 µM: ≥ 75%
[2]
  IC50: 100 to 1000 nM
  inhibition at 1 µM: ≥ 75%

## CC(=O)N(C)c1cnn(C(=O)N2CC3CN(Cc4ccc(C(F)(F)F)cc4)CC3C2)c1 (centres unmarked) [Example 14, N-methyl-N-(1-(5-(4-(trifluoromethyl)benzyl)octahydropyrrolo[3,4-c]pyrrole-2-carbonyl)-1H-pyrazol-4-yl)acetamide]
[1]
  IC50: ≤ 100 nM
  inhibition at 1 µM: ≥ 75%
[2]
  IC50: ≤ 100 nM
  inhibition at 1 µM: ≥ 75%

## CC(=O)N(C)c1cnn(C(=O)N2CC3CN(Cc4ccc(N5CCOCC5)cc4Cl)CC3C2)c1 (centres unmarked) [Example 16, N-(1-(5-(2-chloro-4-morpholinobenzyl)octahydropyrrolo[3,4-c]pyrrole-2-carbonyl)-1H-pyrazol-4-yl)-N-methylacetamide]
[1]
  IC50: ≤ 100 nM
  inhibition at 1 µM: ≥ 75%
[2]
  IC50: ≤ 100 nM
  inhibition at 1 µM: ≥ 75%

## CC(=O)N(C)c1cnn(C(=O)N2CC3CN(Cc4ccc(N5CCOCC5)cc4C)CC3C2)c1 (centres unmarked) [Example 17, N-methyl-N-(1-(5-(2-methyl-4-morpholinobenzyl)octahydropyrrolo[3,4-c]pyrrole-2-carbonyl)-1H-pyrazol-4-yl)acetamide]
[1]
  inhibition at 1 µM: ≥ 75%
[2]
  inhibition at 1 µM: ≥ 75%

## CC(=O)N(C)c1cnn(C(=O)N2CC3(CCN(Cc4ccc(Cl)c(Cl)c4)CC3)C2)c1 [Example 18, N-(1-(7-(3,4-dichlorobenzyl)-2,7-diazaspiro[3.5]nonane-2-carbonyl)-1H-pyrazol-4-yl)-N-methylacetamide]
[1]
  inhibition at 1 µM: 25 to 50%
[2]
  inhibition at 1 µM: ≥ 75%

## CC(=O)N(C)c1cnn(C(=O)N2CC3(CCN(Cc4ccc(N5CCCC5)cc4)CC3)C2)c1 [Example 19, N-methyl-N-(1-(7-(4-(pyrrolidin-1-yl)benzyl)-2,7-diazaspiro[3.5]nonane-2-carbonyl)-1H-pyrazol-4-yl)acetamide]
[1]
  inhibition at 1 µM: 50 to 75%
[2]
  inhibition at 1 µM: 25 to 50%

## CC(=O)N(C)c1cnn(C(=O)N2CC3(CCN(Cc4ccc(C(F)(F)F)cc4)CC3)C2)c1 [Example 20, N-methyl-N-(1-(7-(4-(trifluoromethyl)benzyl)-2,7-diazaspiro[3.5]nonane-2-carbonyl)-1H-pyrazol-4-yl)acetamide]
[1]
  inhibition at 1 µM: 25 to 50%
[2]
  inhibition at 1 µM: 50 to 75%

## CC(=O)N(C)c1cnn(C(=O)N2CC3(CCN(Cc4ccc(N5CCOCC5)cc4Cl)CC3)C2)c1 [Example 22, N-(1-(7-(2-chloro-4-morpholinobenzyl)-2,7-diazaspiro[3.5]nonane-2-carbonyl)-1H-pyrazol-4-yl)-N-methylacetamide]
[1]
  IC50: 1000 to 10000 nM
  inhibition at 1 µM: 25 to 50%
[2]
  IC50: 100 to 1000 nM
  inhibition at 1 µM: ≥ 75%

## CC(=O)N(C)c1cnn(C(=O)N2CC3(CCN(Cc4ccc(N5CCOCC5)cc4C)CC3)C2)c1 [Example 23, N-methyl-N-(1-(7-(2-methyl-4-morpholinobenzyl)-2,7-diazaspiro[3.5]nonane-2-carbonyl)-1H-pyrazol-4-yl)acetamide]
[1]
  inhibition at 1 µM: 25 to 50%
[2]
  inhibition at 1 µM: 25 to 50%

## CC(=O)N(C)c1cnn(C(=O)N2CCC3(CC2)CN(Cc2ccc(Cl)c(Cl)c2)C3)c1 [Example 24, N-(1-(2-(3,4-dichlorobenzyl)-2,7-diazaspiro[3.5]nonane-7-carbonyl)-1H-pyrazol-4-yl)-N-methylacetamide]
[1]
  IC50: ≤ 100 nM
  inhibition at 1 µM: ≥ 75%
[2]
  IC50: ≤ 100 nM
  inhibition at 1 µM: ≥ 75%

## CC(=O)N(C)c1cnn(C(=O)N2CCC3(CC2)CN(Cc2ccc(N4CCCC4)cc2)C3)c1 [Example 25, N-methyl-N-(1-(2-(4-(pyrrolidin-1-yl)benzyl)-2,7-diazaspiro[3.5]nonane-7-carbonyl)-1H-pyrazol-4-yl)acetamide]
[1]
  inhibition at 1 µM: ≥ 75%
[2]
  inhibition at 1 µM: 50 to 75%

## CC(=O)N(C)c1cnn(C(=O)N2CCC3(CC2)CN(Cc2ccc(C(F)(F)F)cc2)C3)c1 [Example 26, N-methyl-N-(1-(2-(4-(trifluoromethyl)benzyl)-2,7-diazaspiro[3.5]nonane-7-carbonyl)-1H-pyrazol-4-yl)acetamide]
[1]
  IC50: ≤ 100 nM
  inhibition at 1 µM: ≥ 75%
[2]
  IC50: 100 to 1000 nM
  inhibition at 1 µM: ≥ 75%

## CC(=O)N(C)c1cnn(C(=O)N2CCC3(CC2)CN(Cc2ccc(N4CCOCC4)cc2)C3)c1 [Example 27, N-methyl-N-(1-(2-(4-morpholinobenzyl)-2,7-diazaspiro[3.5]nonane-7-carbonyl)-1H-pyrazol-4-yl)acetamide]
[1]
  inhibition at 1 µM: ≥ 75%
[2]
  inhibition at 1 µM: 0 to 25%
